Data as given in article PMC11881035, “^68Ga-Labeled Glycopeptides as Effective Tools for Liver Function Imaging” (Molecular Pharmaceutics, 2025).
Like-named read-outs stand apart in the source and are kept apart here. Where a SMILES comes first, the peptide text is derived from it. The star is where a group is joined. X1 = O=C(CCCCc1cn([C@@H]2O[C@H](CO)[C@H](O)[C@H](O)[C@H]2O)nn1)*; NODAGA = O=C(O)CN1CCN(CC(=O)O)CCN(C(CCC(=O)*)C(=O)O)CC1; GABA = NCCCC(=O)O

Legend:
[1] = tested on: healthy female BALB/c mice; experiment: biodistribution in healthy BALB/c mice; settings: mouse, in vivo
Protocol: (§1) The ^68Ge/^68Ga generator, devices for analytical HPLC, semipreparative HPLC, mass spectrometry, radio-thin layer chromatography, gamma counter and animal models for biodistribution and imaging studies including the image reconstruction procedures were the same as described before.[22] Stability assays in PBS and human blood serum, protein binding as well as determination of log D values followed established protocols.[25] Binding affinities (IC50) of selected ligands were determined in an isolated receptor-based assay according to a previously published procedure with minor modifications.[22] Dilutions of nonradioactive complexes were made with PBS + 0.1% BSA (10^–5–10^–12 M). Preparation of [^125I]I-Asialoorosomucoid which serves as the radioactive standard ligand has been published recently.[21]
(§2) Animal experiments were performed in accordance with the Austrian animal experiments law (BGBl. I Nr. 114/2012) and the institution’s animal welfare standards as approved by the Austrian Federal Ministry of Education, Science and Research (BMBWF, 2022–0.311.708). Imaging experiments were conducted at Werner Siemens Imaging Center (Tübingen, Germany) according to the German animal welfare act as approved by the local authorities (R5/19 G, R09/21 G).
(§3) Figure 2 Biodistribution data (% ID/g) of ^68Ga-labeled NODAGA-GalNAc-NonaLysan, NODAGA-NonaLysan, NODAGA-HexaLysan, and NODAGA-TriLysan in healthy BALB/c mice at 10, 30, and 60 min p.i. (100 pmol, 1 MBq).

[2] = biodistribution in healthy BALB/c mice; settings: mouse, in vivo
Protocol: as §1, §2, §3

[3] = log D determination; format: physicochemical
Protocol: as §1

[4] = protein binding in human serum; format: in vitro ADME; settings: human, serum
Protocol: as §1

[5] = complex stability in human blood serum; format: in vitro ADME
Protocol: as §1

[6] = complex stability in PBS; format: physicochemical
Protocol: as §1

[7] = 2 min, read-out: protein binding (%) (converted)
[8] = 30 min, read-out: protein binding (%) (converted)

What does the source list for `NC(=O)CNC(=O)CNC(=O)[C@H](CCCCNC(=O)CCCCc1cn([C@@H]2O[C@H](CO)[C@H](O)[C@H](O)[C@H]2O)nn1)NC(=O)CNC(=O)CNC(=O)[C@H](CCCCNC(=O)CCCCc1cn([C@@H]2O[C@H](CO)[C@H](O)[C@H](O)[C@H]2O)nn1)NC(=O)CNC(=O)CNC(=O)[C@H](CCCCNC(=O)CCCCc1cn([C@@H]2O[C@H](CO)[C@H](O)[C@H](O)[C@H]2O)nn1)NC(=O)CNC(=O)CNC(=O)[C@H](CCCCNC(=O)CCCCc1cn([C@@H]2O[C@H](CO)[C@H](O)[C@H](O)[C@H]2O)nn1)NC(=O)CNC(=O)CNC(=O)[C@H](CCCCNC(=O)CCCCc1cn([C@@H]2O[C@H](CO)[C@H](O)[C@H](O)[C@H]2O)nn1)NC(=O)CNC(=O)CNC(=O)[C@H](CCCCNC(=O)CCCCc1cn([C@@H]2O[C@H](CO)[C@H](O)[C@H](O)[C@H]2O)nn1)NC(=O)CCCNC(=O)CCC(C(=O)O)N1CCN(CC(=O)O)CCN(CC(=O)O)CC1` (stereo partly drawn) [[^68Ga]Ga-NODAGA-HexaLysan, metal not drawn] ({NODAGA-GABA}-K(X1)GGK(X1)GGK(X1)GGK(X1)GGK(X1)GGK(X1)GG-NH2)?
Liver uptake ([1]; 0.5 h): 55.7 ± 7.4 % ID/g; Femur uptake ([1]; 1 h): 0 % ID/g; tissue uptake at 10 min ([2]; Blood uptake): 2.1 ± 0.04 %ID/g; tissue uptake at 0.5 h ([2]; Blood uptake): 0.6 ± 0.1 %ID/g; tissue uptake at 1 h ([2]; Blood uptake): 1.1 ± 0.4 %ID/g; tissue uptake at 10 min ([2]; Femur uptake): 0.5 ± 0.1 %ID/g; tissue uptake at 0.5 h ([2]; Femur uptake): 0.3 ± 0.03 %ID/g; tissue uptake at 10 min ([2]; Heart uptake): 0.9 ± 0.1 %ID/g; tissue uptake at 0.5 h ([2]; Heart uptake): 0.4 ± 0.1 %ID/g; tissue uptake at 1 h ([2]; Heart uptake): 0.3 ± 0.02 %ID/g; tissue uptake at 10 min ([2]; Intestine uptake): 1.2 ± 0.3 %ID/g; tissue uptake at 0.5 h ([2]; Intestine uptake): 4 ± 0.3 %ID/g; tissue uptake at 1 h ([2]; Intestine uptake): 5.9 ± 1.7 %ID/g; tissue uptake at 10 min ([2]; Kidneys uptake): 4.8 ± 0.3 %ID/g; tissue uptake at 0.5 h ([2]; Kidneys uptake): 1.9 ± 0.2 %ID/g; tissue uptake at 1 h ([2]; Kidneys uptake): 1.3 ± 0.3 %ID/g; tissue uptake at 10 min ([2]; Liver uptake): 54.8 ± 3 %ID/g; tissue uptake at 0.5 h ([2]; Liver uptake): 55.5 ± 7.4 %ID/g; tissue uptake at 1 h ([2]; Liver uptake): 45.9 ± 11.8 %ID/g; tissue uptake at 10 min ([2]; Lung uptake): 1.6 ± 0.2 %ID/g; tissue uptake at 0.5 h ([2]; Lung uptake): 0.8 ± 0.1 %ID/g; tissue uptake at 1 h ([2]; Lung uptake): 0.6 ± 0.2 %ID/g; tissue uptake at 10 min ([2]; Muscle uptake): 0.9 ± 1.2 %ID/g; tissue uptake at 0.5 h ([2]; Muscle uptake): 0.6 ± 0.03 %ID/g; tissue uptake at 1 h ([2]; Muscle uptake): 0.4 ± 0.04 %ID/g; tissue uptake at 10 min ([2]; Pancreas uptake): 0.9 ± 0.1 %ID/g; tissue uptake at 0.5 h ([2]; Pancreas uptake): 0.7 ± 0.1 %ID/g; tissue uptake at 1 h ([2]; Pancreas uptake): 0.5 ± 0.1 %ID/g; tissue uptake at 10 min ([2]; Spleen uptake): 0.5 ± 0.1 %ID/g; tissue uptake at 0.5 h ([2]; Spleen uptake): 0.2 ± 0.1 %ID/g; tissue uptake at 1 h ([2]; Spleen uptake): 0.2 ± 0.02 %ID/g; tissue uptake at 10 min ([2]; Stomach uptake): 1.3 ± 0.3 %ID/g; tissue uptake at 0.5 h ([2]; Stomach uptake): 1.2 ± 0.3 %ID/g; tissue uptake at 1 h ([2]; Stomach uptake): 0.4 ± 0.1 %ID/g; logD [3]: -4.34; fraction unbound [4, 7]: 0.824; fraction unbound [4, 8]: 0.782; fraction unbound ([4]; protein binding (%)): 0.785

Which “complex stability in serum (% intact ligand)” value ([5]; 2 min) does the source give for `NC(=O)CNC(=O)CNC(=O)[C@H](CCCCNC(=O)CCCCc1cn([C@@H]2O[C@H](CO)[C@H](O)[C@H](O)[C@H]2O)nn1)NC(=O)CNC(=O)CNC(=O)[C@H](CCCCNC(=O)CCCCc1cn([C@@H]2O[C@H](CO)[C@H](O)[C@H](O)[C@H]2O)nn1)NC(=O)CNC(=O)CNC(=O)[C@H](CCCCNC(=O)CCCCc1cn([C@@H]2O[C@H](CO)[C@H](O)[C@H](O)[C@H]2O)nn1)NC(=O)CCCNC(=O)CCC(C(=O)O)N1CCN(CC(=O)O)CCN(CC(=O)O)CC1` (stereo partly drawn) [[^68Ga]Ga-NODAGA-TriLysan, metal not drawn] ({NODAGA-GABA}-K(X1)GGK(X1)GGK(X1)GG-NH2) here?
Its value is 99.9%.

And the “complex stability in serum (% intact ligand)” value ([5]; 30 min)?
Its value is 99.9%.

And the “complex stability in serum (% intact ligand)” value ([5]; 60 min)?
Its value is 99.9%.

And the “complex stability in serum (% intact ligand)” value ([5]; 120 min)?
The value was 99.9%.

What about the tissue uptake at 10 min ([2]; 10 min p.i., read-out: Blood uptake) of the same compound?
The tissue uptake at 10 min was 3.6 ± 0.1 %ID/g.

And the tissue uptake at 10 min ([2]; 10 min p.i., read-out: Femur uptake)?
The tissue uptake at 10 min was 0.9 ± 0.3 %ID/g.

And the tissue uptake at 10 min ([2]; 10 min p.i., read-out: Heart uptake)?
The tissue uptake at 10 min was 1.4 ± 0.01 %ID/g.

And the tissue uptake at 10 min ([2]; 10 min p.i., read-out: Intestine uptake)?
Its tissue uptake at 10 min is 1.2 ± 0.3 %ID/g.

What about the tissue uptake at 10 min ([2]; 10 min p.i., read-out: Kidneys uptake) of the same compound?
Its tissue uptake at 10 min is 7.6 ± 1.4 %ID/g.

And the tissue uptake at 10 min ([2]; 10 min p.i., read-out: Liver uptake)?
The tissue uptake at 10 min was 9.5 ± 1.6 %ID/g.

What about the tissue uptake at 10 min ([2]; 10 min p.i., read-out: Lung uptake) of the same compound?
Its tissue uptake at 10 min is 2.6 ± 0.2 %ID/g.

And the tissue uptake at 10 min ([2]; 10 min p.i., read-out: Muscle uptake)?
Its tissue uptake at 10 min is 0.9 ± 0.1 %ID/g.

What about the tissue uptake at 10 min ([2]; 10 min p.i., read-out: Pancreas uptake) of the same compound?
Its tissue uptake at 10 min is 1 ± 0.04 %ID/g.

What about the tissue uptake at 10 min ([2]; 10 min p.i., read-out: Spleen uptake) of the same compound?
The tissue uptake at 10 min was 1 ± 0.01 %ID/g.

And the tissue uptake at 10 min ([2]; 10 min p.i., read-out: Stomach uptake)?
The tissue uptake at 10 min was 1.6 ± 0.2 %ID/g.

And the tissue uptake at 0.5 h ([2]; 30 min p.i., read-out: Blood uptake)?
Its tissue uptake at 0.5 h is 1.6 ± 0.2 %ID/g.

And the tissue uptake at 0.5 h ([2]; 30 min p.i., read-out: Femur uptake)?
Its tissue uptake at 0.5 h is 0.4 ± 0.02 %ID/g.

And the tissue uptake at 0.5 h ([2]; 30 min p.i., read-out: Heart uptake)?
The tissue uptake at 0.5 h was 0.6 ± 0.04 %ID/g.

And the tissue uptake at 0.5 h ([2]; 30 min p.i., read-out: Intestine uptake)?
Its tissue uptake at 0.5 h is 1.1 ± 0.02 %ID/g.

What about the tissue uptake at 0.5 h ([2]; 30 min p.i., read-out: Kidneys uptake) of the same compound?
The tissue uptake at 0.5 h was 5 ± 0.02 %ID/g.

And the tissue uptake at 0.5 h ([2]; 30 min p.i., read-out: Liver uptake)?
Its tissue uptake at 0.5 h is 9.4 ± 2 %ID/g.

And the tissue uptake at 0.5 h ([2]; 30 min p.i., read-out: Lung uptake)?
Its tissue uptake at 0.5 h is 1.2 ± 0.1 %ID/g.

And the tissue uptake at 0.5 h ([2]; 30 min p.i., read-out: Muscle uptake)?
The tissue uptake at 0.5 h was 0.4 ± 0.04 %ID/g.

And the tissue uptake at 0.5 h ([2]; 30 min p.i., read-out: Pancreas uptake)?
Its tissue uptake at 0.5 h is 0.4 %ID/g.

What about the tissue uptake at 0.5 h ([2]; 30 min p.i., read-out: Spleen uptake) of the same compound?
Its tissue uptake at 0.5 h is 0.4 ± 0.02 %ID/g.

And the tissue uptake at 0.5 h ([2]; 30 min p.i., read-out: Stomach uptake)?
Its tissue uptake at 0.5 h is 0.9 ± 0.1 %ID/g.

And the tissue uptake at 1 h ([2]; 60 min p.i., read-out: Blood uptake)?
The tissue uptake at 1 h was 0.3 ± 0.01 %ID/g.

What about the tissue uptake at 1 h ([2]; 60 min p.i., read-out: Femur uptake) of the same compound?
The tissue uptake at 1 h was 0.1 ± 0.01 %ID/g.

And the tissue uptake at 1 h ([2]; 60 min p.i., read-out: Heart uptake)?
Its tissue uptake at 1 h is 0.2 ± 0.01 %ID/g.

What about the tissue uptake at 1 h ([2]; 60 min p.i., read-out: Intestine uptake) of the same compound?
Its tissue uptake at 1 h is 1 ± 0.3 %ID/g.

And the tissue uptake at 1 h ([2]; 60 min p.i., read-out: Kidneys uptake)?
Its tissue uptake at 1 h is 2 ± 0.3 %ID/g.

What about the tissue uptake at 1 h ([2]; 60 min p.i., read-out: Liver uptake) of the same compound?
The tissue uptake at 1 h was 9.2 ± 0.3 %ID/g.

What about the tissue uptake at 1 h ([2]; 60 min p.i., read-out: Lung uptake) of the same compound?
The tissue uptake at 1 h was 0.5 ± 0.1 %ID/g.

What about the tissue uptake at 1 h ([2]; 60 min p.i., read-out: Muscle uptake) of the same compound?
The tissue uptake at 1 h was 0.1 %ID/g.

And the tissue uptake at 1 h ([2]; 60 min p.i., read-out: Pancreas uptake)?
The tissue uptake at 1 h was 0.2 ± 0.01 %ID/g.

And the tissue uptake at 1 h ([2]; 60 min p.i., read-out: Spleen uptake)?
Its tissue uptake at 1 h is 0.2 %ID/g.

And the tissue uptake at 1 h ([2]; 60 min p.i., read-out: Stomach uptake)?
Its tissue uptake at 1 h is 0.3 ± 0.01 %ID/g.

And the logD [3]?
Its logD is -3.52.

What about the “complex stability in PBS (% intact ligand)” value ([6]; 2 min) of the same compound?
Its value is 99.7%.

And the “complex stability in PBS (% intact ligand)” value ([6]; 30 min)?
The value was 99.8%.

What about the “complex stability in PBS (% intact ligand)” value ([6]; 60 min) of the same compound?
The value was 99.8%.

What about the “complex stability in PBS (% intact ligand)” value ([6]; 120 min) of the same compound?
Its value is 99.8%.

What about the fraction unbound [4, 7] of the same compound?
Its fraction unbound is 0.924.

And the fraction unbound [4, 8]?
The fraction unbound was 0.945.

And the fraction unbound ([4]; 60 min, read-out: protein binding (%) (converted))?
The fraction unbound was 0.908.

And the fraction unbound ([4]; 120 min, read-out: protein binding (%) (converted))?
Its fraction unbound is 0.864.
